Measured values published in patent publication US10792410B2, “Bioartificial liver” (Mayo Foundation for Medical Education and Research, priority 2009, dated 2020).

Key:
TLR4 + (Wild type) mice = test: Toxin-induced liver injury in TLR4 + (wild type) mice; assay type: in vivo
Description: (§1) The role of TLR4 in ALF and SIRS was studied. […] A similar protective effect of TLR4 deficiency was also observed when wild-type and TLR4 mutant mice were treated with acetaminophen (APAP) at 500 mg/kg—a dose which is highly toxic with 100% mortality in wild-type mice (Table 2). Systemic inflammation was confirmed in wild-type mice after both APAP and Dgal/LPS by rising blood levels of TNFα and neutrophil infiltration in their lungs at necropsy. In contrast, lung histology and systemic levels of TNFα remained normal in TLR4 deficient mice. […] TLR4 deficient Kupffer cells may also explain the protective effects observed in TLR4 deficient mice after toxin exposure (FIG. 6c). […] Pretreatment with gadolinium chloride reduced the number of Kupffer cells in the liver by 48% (31±6 to 16±4 cells/HPF, p<0.001), and lowered peak ALT levels from 2458±2347 U/mL to 278±196 U/mL.

TLR4 − (Deficient) mice = test: Toxin-induced liver injury in TLR4 − (deficient) mice; assay type: in vivo; details: n = 10/group
Description: as §1

TLR4 = TLR4 agonist activity of mouse serum, luciferase reporter in HEK293/Luc(+)/TLR4(+) cells; assay type: cell-based; details: mouse serum 6 hours after APAP 500 mg/kg vs 0 mg/kg sham controls, p<0.001
From the text: FIGS. 7(a)-7(c): (a) TLR4 Signaling Complex is found in many cell types. It can also be stably transfected into reporter cells to measure TLR4 agonist activity in vitro; (b) is a schematic representation of HEK293 cells which have been transfected with TLR4 complex and a luciferase reporter gene to measure TLR4 agonist activity in vitro. The HEK293/Luc(+)/TLR4(+) cells, used to measure TLR4 agonist activity in mouse serum in (c) are used to screen dog serum for TLR4 agonist activity; (c) TLR4 agonist activity was elevated in mouse blood after toxic exposure to APAP (500 vs 0 mg/kg). This in vitro assay is based on a luciferase reporter gene linked to NFκβ in HEK293 cells which responds to TLR4 activation. Only trace background activity was detected in HEK293 cells lacking the TLR4 complex, labeled TLR4(−), confirming specificity of the luciferase activity to TLR4.
Further evidence supporting TLR4 as a signaling molecule in the SIRS response to ALF is illustrated in FIG. 7. FIGS. 7a-b show the assay, as well as the TLR4 receptor complex, used in the study.
TLR4 agonist activity are measured by an in vitro assay using HEK293/Luc(+)/TLR4(+) cells (see, e.g., Akira S, Takeda K. Toll-like receptor signaling. Nat Rev Immunol 2004; 4:499-511). […] Luciferase reporter gene signal are quantified by TD-20/20 luminometer (Turner Designs, Sunnyvale, Calif.). […]

[1] = wild type mice, 6 hr, n = 10/group

Q: Which “ALT, TLR4 +” value (TLR4 + (Wild type) mice; wild type mice, 18 hr, APAP 500 mg/kg, n = 10/group) does the source give for `CC(=O)Nc1ccc(O)cc1` [APAP, acetaminophen] here?
A: 9054 ± 4793 U/mL

Q: What about the mortality (TLR4 + (Wild type) mice; wild-type mice, 500 mg/kg) of the same compound?
A: 100%

Q: What about the “ALT, TLR4 −” value (TLR4 − (Deficient) mice; 18 hr, APAP 500 mg/kg) of the same compound?
A: 4810 ± 4045 U/mL

Q: And the “TLR4 agonist activity in serum” value (TLR4)?
A: high levels of TLR4 agonist activity

Q: With `N[C@H]1C(O)O[C@H](CO)[C@H](O)[C@@H]1O` (stereo partly drawn) [DGal alone, D-galactosamine] as the compound, how does the “ALT, TLR4 +” value (TLR4 + (Wild type) mice; [1]) read?
A: 43 ± 9 U/mL

Q: What about the “TUNEL, TLR4 +” value (TLR4 + (Wild type) mice; [1]) of the same compound?
A: <1 +cells/HPF

Q: And the “ALT, TLR4 −” value (TLR4 − (Deficient) mice; 6 hr)?
A: 54 ± 18 U/mL

Q: What about the “TUNEL, TLR4 −” value (TLR4 − (Deficient) mice; 6 hr) of the same compound?
A: <1 +cells/HPF

Q: With `[Cl][Gd]([Cl])[Cl]` [gadolinium chloride] as the compound, how does the “number of Kupffer cells in the liver” value (TLR4 + (Wild type) mice; after pretreatment, 31±6 without) read?
A: 16±4 cells/HPF

Q: What about the “reduction of the number of Kupffer cells in the liver” value (TLR4 + (Wild type) mice; pretreatment of wild-type mice, p<0.001) of the same compound?
A: 48%

Q: What about the “ALT, TLR4 +” value (TLR4 + (Wild type) mice; [1]) of the same compound?
A: 278±196 U/mL
